In US20090022694A1, “SIRT1 INHIBITION” (priority 2005, published 2009):

Target: T1, SirT1 (Homo sapiens, UniProt Q96EB6)
T1 sequence (Q96EB6 1-747): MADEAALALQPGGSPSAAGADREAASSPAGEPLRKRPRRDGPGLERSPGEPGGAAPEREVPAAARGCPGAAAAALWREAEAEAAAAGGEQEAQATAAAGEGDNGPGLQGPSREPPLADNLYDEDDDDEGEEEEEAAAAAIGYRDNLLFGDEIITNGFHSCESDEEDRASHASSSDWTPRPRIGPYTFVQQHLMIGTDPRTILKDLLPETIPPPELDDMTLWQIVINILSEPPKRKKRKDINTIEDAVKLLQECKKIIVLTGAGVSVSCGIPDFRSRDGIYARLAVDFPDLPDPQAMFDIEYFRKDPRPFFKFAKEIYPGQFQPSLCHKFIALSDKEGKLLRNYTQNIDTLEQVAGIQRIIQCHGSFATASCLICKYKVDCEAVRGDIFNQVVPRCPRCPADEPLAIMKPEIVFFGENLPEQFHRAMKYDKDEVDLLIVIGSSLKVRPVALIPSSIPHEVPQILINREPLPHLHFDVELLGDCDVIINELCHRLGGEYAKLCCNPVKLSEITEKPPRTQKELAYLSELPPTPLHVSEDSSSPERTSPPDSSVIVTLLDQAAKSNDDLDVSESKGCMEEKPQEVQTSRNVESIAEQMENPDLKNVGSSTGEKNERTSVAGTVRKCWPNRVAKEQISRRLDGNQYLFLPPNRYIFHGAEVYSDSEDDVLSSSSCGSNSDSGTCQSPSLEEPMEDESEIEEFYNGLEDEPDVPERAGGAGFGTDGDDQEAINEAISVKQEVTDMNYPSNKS
Test: SirT1 enzymatic assay, p53-382 Fluor-de-Lys (FdL)
Assay type: biochemical
Conditions: for IC50: Table 1, exemplary compounds
Description: The ability of a compound to inhibit SIRT1 can be evaluated in many ways. In some embodiments, interaction with, e.g., binding of, SIRT1 can be assayed in vitro. The reaction mixture can include a SIRT1 co-factor such as NAD and/or a NAD analog. In other embodiments, the ability of the compound to inhibit an enzymatic function, e.g., deacetylase activity of SIRT1, can be assayed in vitro. Assays can include determining the IC50 of the compound.
An exemplary assay method includes a multi-well format of the SirT1 enzymatic assay that is based on the commercial “Fluor-de-Lys” assay principle by Biomol, which is fluorogenic (www.biomol.com/store/Product_Data_PDFs/ak500.pdf). In this assay, deacetylation of the s-amino function of a lysyl residue is coupled to a fluorogenic development step that is dependent on the unblocked ε-amino functionality and generates fluorescent aminomethylcoumarin. Fluorescence can be read on a commercial […]. Standard enzymological analyses can be used to determine Ki.

IC50 [µM]	SMILES	activity against the SirT1 enzyme compared with the enantiomer (isomer with negative optical rotation vs enantiomer with positive optical rotation)
> 10	CC(=O)N1CCc2c([nH]c3ccc(Cl)cc23)C1C(N)=O (stereo not shown) [Compound 58, 2-acetyl-6-chloro-2,3,4,9-tetrahydro-1H-pyrido[3,4-b]indole-1-carboxamide]	–
> 10	O=C(O)C1CCCc2c1[nH]c1ccc(O)cc21 (stereo not shown) [Compound 54, 6-hydroxy-2,3,4,9-tetrahydro-1H-carbazole-1-carboxylic acid]	–
> 10	NC(=O)C1NCCc2c1[nH]c1ccc(Cl)cc21 (stereo not shown) [Compound 56, 6-chloro-2,3,4,9-tetrahydro-1H-pyrido[3,4-b]indole-1-carboxamide]	–
–	NC(=O)C1CCCc2c1[nH]c1ccc(Cl)cc21 (single isomer, unassigned) [isomer of compound 4 having a negative optical rotation, 6-Chloro-2,3,4,9-tetrahydro-1H-carbazole-1-carboxylic acid amide]	greater activity against the SirT1 enzyme
